The values that follow come from ChEMBL document CHEMBL5550197, “New melphalan derivatives for the treatment of retinoblastoma in combination with thermotherapy” (RSC Med Chem, 2024).

What is called IC50 is the midpoint of a concentration-inhibition curve.

Experiment [1] concerns Y79. The experiment can be described thus: Potency index, ratio of melphalan IC50 to test compound IC50 for cytotoxicity against human Y79 cells assessed as cell viability incubated for 24 hrs under 37 degreeC by PrestoBlue reagent based assay. Format: functional.
Experiment [2] concerns dsDNA. The experiment is described as follows: Binding affinity to dsDNA (unknown origin) assessed as adduct formation by measuring free dsDNA incubated for 48 hrs by ESI-MS analysis. Format: nucleic-acid assay. The arrangement: concentration or dose not given beside the values.
For experiment [3], the system named is Y79. The experiment can be described thus: Potency index, ratio of melphalan IC50 to test compound IC50 for cytotoxicity against human Y79 cells assessed as cell viability preincubated for 1 hr under 42 degreeC and further incubated under 37 degreeC for 23 hrs by PrestoBlue reagent based assay. Format: functional. The note with it: time 24 hrs.
The subject of experiment [4] is dsDNA. The experiment is described as follows: Binding affinity to dsDNA (unknown origin) assessed as adduct formation by measuring bound dsDNA incubated for 48 hrs by ESI-MS analysis. It counts as nucleic-acid assay.
The subject of the next experiment is RPMI-8226. The experiment can be described thus: Cytotoxicity against human RPMI-8226 cells incubated for 48 hrs by resazurin dye based assay. Format: functional, cell-based. The note with it: RPMI-8226, 48 h. In general terms: The colour change of resazurin is a common sign of viable cells or microbes.
Experiment [5] deals with Y79. The experiment can be described thus: Cytotoxicity against human Y79 cells assessed as cell viability incubated for 24 hrs under 37 degreeC by PrestoBlue reagent based assay. It counts as functional. The settings on record: Y79, 24 h.

As for `Cl.N[C@@H](Cc1ccc(N(CCCl)CCCl)cc1)C(=O)OCCC(F)(F)F`, the “Ratio IC50” value in the experiment on Y79 [1] and in the experiment on Y79 [3] was 8 in each case. The Activity in the experiment on dsDNA [2] is 26%; in the experiment with dsDNA [4], 74%.
`N[C@@H](Cc1ccc(N(CCCl)CCCl)cc1)C(=O)OCCC(F)(F)C(F)(F)C(F)(F)C(F)(F)C(F)(F)C(F)(F)F`: the Activity with dsDNA [2] was determined as 92%.
The compound `N[C@@H](Cc1ccc(N(CCCl)CCCl)cc1)C(=O)O` returned an IC50 with RPMI-8226 of 8.9 µM. Also, the Activity with dsDNA [2] came to 99%.
For `N[C@@H](Cc1ccc(N(CCCl)CCCl)cc1)C(=O)OCCC(F)(F)C(F)(F)C(F)(F)C(F)(F)C(F)(F)C(F)(F)C(F)(F)C(F)(F)F`, the Activity in the experiment on dsDNA [2] was determined as 98%.
On to `N[C@@H](Cc1ccc(N(CCCl)CCCl)cc1)C(=O)OCCC(F)(F)C(F)(F)C(F)(F)C(F)(F)F`, for which the Activity was 51% in the experiment with dsDNA [2] and 49% in the experiment on dsDNA [4].
As to `N[C@@H](Cc1ccc(N(CCCl)CCCl)cc1)C(=O)OCCC(F)(F)C(F)(F)C(F)(F)C(F)(F)C(F)(F)C(F)(F)C(F)(F)C(F)(F)C(F)(F)C(F)(F)F`, the 50% inhibitory concentration (IC50) in the experiment on Y79 [5] is over 200 µM.
Regarding `N[C@@H](Cc1ccc(N(CCCl)CCCl)cc1)C(=O)OCCC(F)(F)C(F)(F)F`, the Activity came to 37% with dsDNA [2] and 63% in the experiment on dsDNA [4].
